Assay results: patent publication US20120070511A1, “MITOCHONDRIAL INHIBITORS AND USES THEREOF” (priority 2009, published 2012)

Tests used:
Format in all cases: cell-based
MM.1S and REH cell lines [1] = test: Mitochondrial Ca2+ (X-rhod-1) after CCCP; conditions: 10 μM CCCP; both cell types
Procedure: (§1) […]. A) ψm potential, B) mitochondrial Ca^2+ and C) cytoplasmic Ca^2+ levels were measured using the fluorochromes JC-1, X-rhod-1 and indo-1, respectively. After 10 min of initial baseline measurement, CCCP was added into each well to achieve a final concentration of 10 μM and changes in fluorescence intensity was assayed for up to 2 h. In the graphs the time point of CCCP addition is marked as ‘0’. The graph is an average of triplicate samples with +SD.
Measurement of cytoplasmic and mitochondrial calcium: Cytoplasmic Ca^2+ concentration was estimated by using the cell permeant ratiometric fluorochrome indo-1-AM (Invitrogen, Carlsbad, Calif., USA) while mitochondrial Ca^2+ was measured by X-Rhod-1-AM (Invitrogen, Carlsbad, Calif., USA). In the latter assay, to normalize mitochondrial Ca^2+ signal to mitochondria number, Mitotracker Green (Invitrogen, Carlsbad, Calif., USA) fluorescence was simultaneously analyzed. Experiments were performed in cells loaded with either 2.5 μM of indo-1 or 5 μM X-rhod-1 and 250 nM of Mitotracker at 37° C. for 45 min. Cells were, then, centrifuged at 400 g for 5 min and resuspended in their growth medium followed by distribution of 100 μl of aliquots into 96 well optical bottom plates (Nalge Nunc, Int., Rochester, N.Y., USA) and fluorescence was measured by Spectra Max Gemini Plus (Molecular Devices, Sunnyvale, Calif., USA). […]

REH cells [2] = test: Cytoplasmic Ca2+ (indo-1) after CCCP; conditions: 10 μM CCCP
Procedure: as §1
Measurement of cytoplasmic and mitochondrial calcium: Cytoplasmic Ca^2+ concentration was estimated by using the cell permeant ratiometric fluorochrome indo-1-AM (Invitrogen, Carlsbad, Calif., USA) while mitochondrial Ca^2+ was measured by X-Rhod-1-AM (Invitrogen, Carlsbad, Calif., USA). In the latter assay, to normalize mitochondrial Ca^2+ signal to mitochondria number, Mitotracker Green (Invitrogen, Carlsbad, Calif., USA) fluorescence was simultaneously analyzed. Experiments were performed in cells loaded with either 2.5 μM of indo-1 or 5 μM X-rhod-1 and 250 nM of Mitotracker at 37° C. for 45 min. Cells were, then, centrifuged at 400 g for 5 min and resuspended in their growth medium followed by distribution of 100 μl of aliquots into 96 well optical bottom plates (Nalge Nunc, Int., Rochester, N.Y., USA) and fluorescence was measured by Spectra Max Gemini Plus (Molecular Devices, Sunnyvale, Calif., USA). The average of triplicates from untreated samples was used as control reading and increase in cytoplasmic or mitochondrial Ca^2+ was calculated as percent increase from control samples.

[3] = tested on: MM cell lines (MM.1S, 8226, KMS-11)
Procedure: Cytotoxicity assay: Cells were incubated for 24 h at 37° C. in 5% CO2 at which time drug treatments began and continued for 24 h. At this time cells were transferred to a tube followed by centrifugation at 400 g for 5 min. The pellets were resuspended in 1 ml of Hanks solution and analyzed by Vi-Cell (Beckman Coulter, Fullerton, Calif., USA) cell viability analyzer.

MM.1S and REH cell lines [4] = test: Mitochondrial membrane potential (JC-1) after CCCP; conditions: immediately after 10 μM CCCP
Procedure: as §1
Assaying mitochondrial function: Two parameters were assayed for mitochondrial function: Δψm and oxygen consumption. Δψm was estimated using […] (JC-1, Invitrogen, Carlsbad, Calif., USA). Oxygen consumption was measured in 3×10^6 cells using a Clark's electrode (Hansatech, Cambridge, UK).

REH cells [5] = test: Western blot after 24 h CCCP (UPR, AMPK pathway, caspase 3)
Procedure: (§2) A) Reversal of CCCP induced toxicity by either 10 μM BAPTA-AM or 50 μM of Z-VAD was investigated using trypan blue exclusion assays. The bars represent the average of triplicate samples +SD. B) ATP levels were assayed following 6 h of treatment with indicated concentrations of CCCP. The bars represent the average of triplicate samples +SD. C) Induction of UPR, activation of AMPK pathway and cleavage of caspase 3 was analyzed by western blots following 24 h treatment with indicated concentrations of CCCP in MM.1S and REH cell lines. β-Actin was used as a loading control. D) The quantification of phosphorylated AMPK and total AMPK bands in the previous panel was done using a Bio-Rad gel reader which employs Quality I software. The bars represent the fold increase in the ratio of p-AMPK/AMPK in treated versus untreated samples from three independent experiments +SD.
(§3) Western blot analysis: Western blots were performed. Membranes were probed with monoclonal rabbit anti-GRP94, anti GRP-78, anti-PDI, anti-CHOP/GADD153, anti-cleaved caspase 3 (Cell Signaling, Danvers, Mass., USA) and monoclonal mouse anti-β-actin (Sigma, St. Louis, Mo., USA).

MM.1S cells = tested on: MM.1S cells
Procedure: as §2, §3

N#CC(C#N)=NNc1cccc(Cl)c1 [CCCP]
mitochondrial Ca2+ (MM.1S and REH cell lines [1]): lowering of Ca^2+ concentration in the mitochondrial matrix
cytoplasmic Ca2+ levels directly after addition (REH cells [2]): go up in both cell types
cytoplasmic Ca2+ levels later (after clearance phase) (REH cells [2]): go back to control levels
cytotoxicity (cell death) ([3]; 24 h, all 3 MM cell lines): more toxic to MM cells as compared to non-myeloma cells
cell death compared among mitochondrial inhibitors ([3]; concentrations of FIG. 13, caspase 3 cleavage and percent of cell death): more toxic than either antimycin A or oligomycin
Δψm (MM.1S and REH cell lines [4]): significantly reduced in both cell types
CCCP concentration required for similar increase of CHOP/GADD153 (REH cells [5]; 24 h, REH): at least 10 μM
AMPK phosphorylation at higher doses (REH cells [5]; REH): continues to increase
cleaved caspase 3 (REH cells [5]; REH, even at the 10 μM dose): no cleaved caspase 3 can be detected
AMPK phosphorylation (REH cells [5]; highest dose (10 μM) CCCP, REH compared to MM.1S): more phosphorylated
CCCP concentration at which caspase 3 starts to get cleaved (MM.1S cells; 24 h, MM cells): 5 µM
CCCP concentration giving significant induction of CHOP/GADD153 expression (MM.1S cells; 24 h, MM.1S): 2.5 µM
potency in upregulating CHOP/GADD153, MM versus B-cell leukemia (MM.1S cells; FIG. 12c): four times more potent
AMPK phosphorylation at higher doses (MM.1S cells; MM.1S): suppressed
eif2α phosphorylation and ATF4 upregulation (MM.1S cells; MM.1S treated with CCCP): not detected
